ChEMBL document CHEMBL3045159, “Computational evaluation and experimental in vitro antibacterial, antifungal and antiviral activity of bis-Schiff bases of isatin and its derivatives” (Med Chem Res, 2013)
Values after ≈ are worked out from the molar mass of the structure shown.

What was measured:
[1] = test system: Vesicular stomatitis virus; test: Antiviral activity against Vesicular stomatitis virus infected HeLa; format: functional
[2] = Cytotoxicity against Homo sapiens (human) HeLa cells; format: cell-based
[3] = test system: Coxsackievirus B4; test: Antiviral activity against Human coxsackievirus B4 infected HeLa cells; format: functional; conditions: Enterovirus B
[4] = test system: Human alphaherpesvirus 2; test: Antiviral activity against Human herpesvirus 2 strain G infected HEL cells; format: functional; conditions: Human alphaherpesvirus 2, strain G
[5] = Cytotoxicity against Chlorocebus aethiops (African green monkey) Vero cells; format: cell-based; conditions: chlorocebus sabaeus
[6] = test system: Human alphaherpesvirus 1; test: Antiviral activity against thymidine kinase-deficient, acylcovir-resistant Human herpesvirus 1 strain KOS infected in HEL cells; format: functional; conditions: Human alphaherpesvirus 1, KOS
[7] = test system: Mammalian orthoreovirus 1; test: Antiviral activity against Mammalian orthoreovirus 1 infected Vero cells; format: functional
[8] = test system: Coxsackievirus B4; test: Antiviral activity against Human coxsackievirus B4 infected Vero cells; format: functional; conditions: Enterovirus B
[9] = Cytotoxicity against Homo sapiens (human) HEL cells; format: cell-based
[10] = test system: Vesicular stomatitis virus; test: Antiviral activity against Vesicular stomatitis virus infected HEL cells; format: functional
[11] = test system: Human alphaherpesvirus 1; test: Antiviral activity against Human herpesvirus 1 strain KOS infected in HEL cells; format: functional; conditions: Human alphaherpesvirus 1, KOS
[12] = test system: Human respirovirus 3; test: Antiviral activity against Human parainfluenza virus 3 infected Vero cells; format: functional
[13] = test system: Sindbis virus; test: Antiviral activity against Sindbis virus infected Vero cells; format: functional
[14] = test system: Vaccinia virus; test: Antiviral activity against Vaccinia virus infected HEL cells; format: functional; conditions: Orthopoxvirus vaccinia
[15] = test system: Punta Toro virus; test: Antiviral activity against Punta Toro virus infected Vero cells; format: functional
[16] = test system: Respiratory syncytial virus; test: Antiviral activity against Respiratory syncytial virus infected HeLa cells; format: functional; conditions: human respiratory syncytial virus
[17] = test system: Candida albicans; test: Antifungal activity against Candida albicans CIP 1180-79; format: functional
[18] = test system: Staphylococcus aureus; test: Antibacterial activity against Staphylococcus aureus CIP 4.83; format: functional
[19] = test system: Saccharomyces cerevisiae; test: Antifungal activity against Saccharomyces cerevisiae ATCC 28383; format: functional
[20] = test system: Escherichia coli; test: Antibacterial activity against Escherichia coli CIP 54127; format: functional

SMILES | MIC [1] | MCC [2] | MIC [3] | MIC [4] | MCC [5] | MIC [6] | MIC [7] | MIC [8] | MCC [9] | MIC [10] | MIC [11] | MIC [12] | MIC [13] | MIC [14] | MIC [15] | MIC [16] | MIC [17] | MIC [18] | MIC [19] | MIC [20]
NC(=O)c1ncn([C@@H]2O[C@H](CO)[C@@H](O)[C@H]2O)n1 [RIBAVIRIN] | 60 µg/mL (≈ 246 µM) | > 500 µg/mL | > 500 µg/mL | > 500 µg/mL | > 500 µg/mL | > 500 µg/mL | 300 µg/mL (≈ 1230 µM) | > 500 µg/mL | > 500 µg/mL | > 500 µg/mL | 500 µg/mL (≈ 2050 µM) | 300 µg/mL (≈ 1230 µM) | 300 µg/mL (≈ 1230 µM) | 300 µg/mL (≈ 1230 µM) | 60 µg/mL (≈ 246 µM) | 60 µg/mL (≈ 246 µM) | – | – | – | –
Nc1nc2c(ncn2COCCO)c(=O)[nH]1 [ACYCLOVIR] | – | – | – | 20 µg/mL (≈ 88.8 µM) | – | 300 µg/mL (≈ 1330 µM) | – | – | > 500 µg/mL | > 500 µg/mL | 2.4 µg/mL (≈ 10.7 µM) | – | – | > 500 µg/mL | – | – | – | – | – | –
Nc1nc2c(ncn2COC(CO)CO)c(=O)[nH]1 [GANCICLOVIR] | – | – | – | 4 µg/mL (≈ 15.7 µM) | – | 12 µg/mL (≈ 47 µM) | – | – | > 100 µg/mL | > 100 µg/mL | 0.48 µg/mL (≈ 1.88 µM) | – | – | > 100 µg/mL | – | – | – | – | – | –
O=C1/C(=N/c2cccc(Cc3cccc(/N=C4/C(=O)N(Cc5ccccc5)c5ccccc54)c3)c2)c2ccccc2N1Cc1ccccc1 | > 40 µg/mL | 200 µg/mL | > 40 µg/mL | > 40 µg/mL | 200 µg/mL | > 40 µg/mL | > 40 µg/mL | > 40 µg/mL | 200 µg/mL | > 40 µg/mL | > 40 µg/mL | > 40 µg/mL | > 40 µg/mL | > 40 µg/mL | > 40 µg/mL | > 40 µg/mL | < 50 µg/mL | < 50 µg/mL | < 50 µg/mL | < 50 µg/mL
O=C1/C(=N\c2ccc(Cc3ccc(/N=C4\C(=O)N(Cc5ccccc5)c5ccccc54)cc3)cc2)c2ccccc2N1Cc1ccccc1 | > 40 µg/mL | 200 µg/mL | > 40 µg/mL | > 8 µg/mL | 40 µg/mL | > 8 µg/mL | > 8 µg/mL | > 8 µg/mL | 40 µg/mL | > 8 µg/mL | > 8 µg/mL | > 8 µg/mL | > 8 µg/mL | > 8 µg/mL | > 8 µg/mL | > 40 µg/mL | < 50 µg/mL | < 50 µg/mL | < 50 µg/mL | < 50 µg/mL
Cc1c(/N=C2/C(=O)Nc3ccccc32)cccc1/N=C1/C(=O)Nc2ccccc21 | > 400 µg/mL | ≥ 400 µg/mL | > 400 µg/mL | > 80 µg/mL | 400 µg/mL | 16 µg/mL (≈ 42.1 µM) | > 80 µg/mL | > 80 µg/mL | 400 µg/mL | > 80 µg/mL | > 80 µg/mL | > 80 µg/mL | > 80 µg/mL | > 80 µg/mL | > 80 µg/mL | > 400 µg/mL | < 100 µg/mL | < 100 µg/mL | < 100 µg/mL | < 100 µg/mL
O=C1/C(=N\c2ccc(Oc3ccc(/N=C4\C(=O)N(Cc5ccccc5)c5ccccc54)cc3)cc2)c2ccccc2N1Cc1ccccc1 | > 16 µg/mL | 80 µg/mL | > 16 µg/mL | > 80 µg/mL | 80 µg/mL | > 80 µg/mL | > 80 µg/mL | > 80 µg/mL | 400 µg/mL | > 80 µg/mL | > 80 µg/mL | > 80 µg/mL | > 80 µg/mL | > 80 µg/mL | > 80 µg/mL | > 16 µg/mL | < 50 µg/mL | < 50 µg/mL | < 50 µg/mL | < 50 µg/mL
O=C1Nc2ccccc2/C1=N/c1ccc(C(=O)c2ccc(/N=C3\C(=O)Nc4ccccc43)cc2)cc1 | 48 µg/mL (≈ 102 µM) | 80 µg/mL | > 16 µg/mL | > 16 µg/mL | ≥ 16 µg/mL | > 16 µg/mL | > 16 µg/mL | > 16 µg/mL | 80 µg/mL | > 16 µg/mL | > 16 µg/mL | > 16 µg/mL | > 16 µg/mL | > 16 µg/mL | > 16 µg/mL | > 16 µg/mL | < 50 µg/mL | < 50 µg/mL | < 50 µg/mL | < 50 µg/mL
CCc1ccc2c(c1)/C(=N/c1c(CC)cc(Cc3cc(CC)c(/N=C4\C(=O)N(CC)c5ccc(CC)cc54)c(CC)c3Cl)c(Cl)c1CC)C(=O)N2CC | > 3.2 µg/mL | 16 µg/mL | > 3.2 µg/mL | > 16 µg/mL | 16 µg/mL | > 16 µg/mL | > 3.2 µg/mL | > 3.2 µg/mL | 80 µg/mL | > 16 µg/mL | > 16 µg/mL | > 3.2 µg/mL | > 3.2 µg/mL | > 16 µg/mL | > 3.2 µg/mL | > 3.2 µg/mL | < 50 µg/mL | < 50 µg/mL | < 50 µg/mL | < 50 µg/mL
O=C1Nc2ccc(F)cc2/C1=N\c1cccc(Cc2cccc(/N=C3/C(=O)Nc4ccc(F)cc43)c2)c1 | 9.6 µg/mL (≈ 19.5 µM) | 80 µg/mL | > 16 µg/mL | > 16 µg/mL | 80 µg/mL | > 16 µg/mL | > 16 µg/mL | > 16 µg/mL | 80 µg/mL | > 16 µg/mL | > 16 µg/mL | > 16 µg/mL | > 16 µg/mL | > 16 µg/mL | > 16 µg/mL | > 16 µg/mL | < 50 µg/mL | < 50 µg/mL | < 50 µg/mL | < 50 µg/mL
O=C1Nc2ccccc2/C1=N\c1cccc(Cc2cccc(/N=C3/C(=O)Nc4ccccc43)c2)c1 | 9.6 µg/mL (≈ 21 µM) | ≥ 16 µg/mL | > 16 µg/mL | > 16 µg/mL | 80 µg/mL | > 16 µg/mL | > 16 µg/mL | > 16 µg/mL | 80 µg/mL | > 16 µg/mL | > 16 µg/mL | > 16 µg/mL | > 16 µg/mL | > 16 µg/mL | > 16 µg/mL | > 16 µg/mL | < 50 µg/mL | < 50 µg/mL | < 50 µg/mL | < 50 µg/mL
O=c1[nH]c(=O)n([C@H]2C[C@H](O)[C@@H](CO)O2)cc1/C=C/Br [BRIVUDINE] | > 500 µg/mL | 500 µg/mL | > 500 µg/mL | > 500 µg/mL | 500 µg/mL | 500 µg/mL (≈ 1500 µM) | > 100 µg/mL | > 100 µg/mL | > 500 µg/mL | > 500 µg/mL | 0.16 µg/mL (≈ 0.48 µM) | > 100 µg/mL | > 100 µg/mL | 60 µg/mL (≈ 180 µM) | > 100 µg/mL | > 500 µg/mL | – | – | – | –
Nc1ncnc2c1ncn2C[C@H](O)CO [(S)-DHPA] | 500 µg/mL (≈ 2390 µM) | > 500 µg/mL | > 500 µg/mL | – | 500 µg/mL | – | 300 µg/mL (≈ 1430 µM) | > 100 µg/mL | – | – | – | > 100 µg/mL | > 100 µg/mL | – | – | > 500 µg/mL | – | – | – | –
